In patent US20260053932A1, “COMPOUNDS AND METHODS FOR THE TARGETED DEGRADATION OF ANDROGEN RECEPTOR AND ASSOCIATED METHODS OF USE” (Arvinas Operations, Inc., priority 2020, published 2026):

tested on: androgen receptor (AR) in LNCaP and/or VCaP cells; experiment: Androgen Receptor ELISA assay (AR degradation); format: cell-based; settings: LNCaP and/or VCaP cells; 5 hours incubation; media with R1881; read-out: DC50 Code* (degradation of AR ELISA)
Procedure, shortened: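 VCaP cells grown ≥3 days, then treated 5 h with compound in media containing 1 nM R1881 (10× stock). Cells lysed and AR quantified by sandwich ELISA (mouse AR detection Ab, HRP anti-mouse, TMB). DC50 and Dmax derived from AR degradation.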

Row | DC50 [nM] | Compound
1 | > 100 | CC1(C)[C@H](NC(=O)c2ccn([C@H]3CC[C@H](CCCOc4ccc5c(c4)C(=O)N(C4CCC(=O)NC4=O)C5=O)CC3)n2)C(C)(C)[C@H]1Oc1ccc(C#N)c(Cl)c1 (stereo partly drawn) [Compound 72, N-((1r,3R)-3-(3-chloro-4-cyanophenoxy)-2,2,4,4-tetramethylcyclobutyl)-1-((1r,4R)-4-(3-((2-(2,6-dioxopiperidin-3-yl)-1,3-dioxoisoindolin-5-yl)oxy)propyl)cyclohexyl)-1H-pyrazole-3-carboxamide]
2 | > 100 | COc1cc(O[C@H]2C[C@H](N(CC3CCN(c4ncc(C(=O)N[C@H]5CC[C@@H](Oc6cc(C)c(C#N)c(C)c6)C5)cn4)CC3)C(C)C)C2)cc2c1C(=O)N(C1CCC(=O)NC1=O)C2=O (stereo partly drawn) [Compound 9, N-((1S,3R)-3-(4-cyano-3,5-dimethylphenoxy)cyclopentyl)-2-(4-((((1r,3S)-3-((2-(2,6-dioxopiperidin-3-yl)-7-methoxy-1,3-dioxoisoindolin-5-yl)oxy)cyclobutyl) (isopropyl)amino)methyl)piperidin-1-yl)pyrimidine-5-carboxamide]
3 | > 100 | COc1cc(O[C@@H]2CC[C@@H](NC(=O)c3cnc(N4CCC(CN(C(C)C)[C@H]5C[C@H](Oc6ccc7c(c6)C(=O)N(C6CCC(=O)NC6=O)C7=O)C5)CC4)cn3)C2)ccc1C#N (stereo partly drawn) [Compound 10, N-((1R,3R)-3-(4-cyano-3-methoxyphenoxy)cyclopentyl)-5-(4-((((1r,3R)-3-((2-(2,6-dioxopiperidin-3-yl)-1,3-dioxoisoindolin-5-yl)oxy)cyclobutyl) (isopropyl)amino)methyl)piperidin-1-yl)pyrazine-2-carboxamide]

same assay, conditions: degradation of AR ELISA in LNCaP and/or VCaP cells; Table 2C; read-out: DC50 Code*

Row | DC50 [nM] | Compound
4 | < 1 | CC1(C)[C@H](NC(=O)c2ccc(N3CCC(CN(CCN4CCOCC4)[C@H]4C[C@H](Oc5ccc6c(c5)C(=O)N(C5CCC(=O)NC5=O)C6=O)C4)CC3)cc2)C(C)(C)[C@H]1Oc1ccc(C#N)c(C#N)c1 (some centres unmarked) [compound 214, N-((1r,3r)-3-(3,4-dicyanophenoxy)-2,2,4,4-tetramethylcyclobutyl)-4-(4-((((1r,3r)-3-((2-(2,6-dioxopiperidin-3-yl)-1,3-dioxoisoindolin-5-yl)oxy)cyclobutyl)(2-morpholinoethyl)amino)methyl)piperidin-1-yl)benzamide]
5 | < 1 | CCN(C1CCN(c2ccc(C(=O)N[C@H]3C(C)(C)[C@H](Oc4cc(C)c(C#N)c(C)c4)C3(C)C)cc2)CC1)[C@H]1C[C@H](Oc2cc(OC)c3c(c2)C(=O)N(C2CCC(=O)NC2=O)C3=O)C1 (mixture of isomers) [compound 165, rac-N-((1r,3r)-3-(4-cyano-3,5-dimethylphenoxy)-2,2,4,4-tetramethylcyclobutyl)-4-(4-(((1r,3r)-3-((2-(2,6-dioxopiperidin-3-yl)-7-methoxy-1,3-dioxoisoindolin-5-yl)oxy)cyclobutyl) (ethyl)amino)piperidin-1-yl)benzamide]
6 | < 1 | CCN(CC1CCN(c2cnc(C(=O)N[C@H]3C(C)(C)[C@H](Oc4cc(C)c(C#N)c(C)c4)C3(C)C)cn2)CC1)[C@H]1C[C@H](Oc2cc(OC)c3c(c2)C(=O)N(C2CCC(=O)NC2=O)C3=O)C1 (some centres unmarked) [Compound 207, N-((1r,3r)-3-(4-cyano-3,5-dimethylphenoxy)-2,2,4,4-tetramethylcyclobutyl)-5-(4-((((1r,3r)-3-((2-(2,6-dioxopiperidin-3-yl)-7-methoxy-1,3-dioxoisoindolin-5-yl)oxy)cyclobutyl)(ethyl)amino)methyl)piperidin-1-yl)pyrazine-2-carboxamide]
7 | < 1 | COc1cc(O[C@H]2C[C@H](N(C)CCOC3CCN(c4ccc(C(=O)N[C@H]5C(C)(C)[C@H](Oc6cc(C)c(C#N)c(C)c6)C5(C)C)cc4)CC3)C2)cc2c1C(=O)N(C1CCC(=O)NC1=O)C2=O (some centres unmarked) [compound 164, N-((1r,3r)-3-(4-cyano-3,5-dimethylphenoxy)-2,2,4,4-tetramethylcyclobutyl)-4-(4-(2-(((1r,3r)-3-((2-(2,6-dioxopiperidin-3-yl)-7-methoxy-1,3-dioxoisoindolin-5-yl)oxy)cyclobutyl) (methyl)amino)ethoxy)piperidin-1-yl)benzamide]
8 | < 1 | Cc1cc(O[C@H]2C(C)(C)[C@H](NC(=O)c3cnc(N4CCC(CN(CCO)[C@H]5C[C@H](Oc6ccc7c(c6)C(=O)N(C6CCC(=O)NC6=O)C7=O)C5)CC4)cn3)C2(C)C)cc(C)c1C#N (mixture of isomers) [compound 229, rac-N-((1r,3r)-3-(4-cyano-3,5-dimethylphenoxy)-2,2,4,4-tetramethylcyclobutyl)-5-(4-((((1r,3r)-3-((2-(2,6-dioxopiperidin-3-yl)-1,3-dioxoisoindolin-5-yl)oxy)cyclobutyl)(2-hydroxyethyl)amino)methyl)piperidin-1-yl)pyrazine-2-carboxamide]
9 | < 1 | CCN(CC1CCN(c2ccc(C(=O)N[C@H]3C(C)(C)[C@H](Oc4ccc(C#N)c(OC)c4)C3(C)C)cc2)CC1)[C@H]1C[C@H](Oc2ccc3c(c2)C(=O)N(C2CCC(=O)NC2=O)C3=O)C1 (some centres unmarked) [compound 147, N-((1r,3r)-3-(4-cyano-3-methoxyphenoxy)-2,2,4,4-tetramethylcyclobutyl)-4-(4-((((1r,3r)-3-((2-(2,6-dioxopiperidin-3-yl)-1,3-dioxoisoindolin-5-yl)oxy)cyclobutyl)(ethyl)amino)methyl)piperidin-1-yl)benzamide]
10 | < 1 | [2H]C([2H])([2H])Oc1cc(O[C@H]2C(C)(C)[C@H](NC(=O)c3ccc(N4CCC(CN(C(C)C)[C@H]5C[C@H](Oc6cc(OC([2H])([2H])[2H])c7c(c6)C(=O)N(C6CCC(=O)NC6=O)C7=O)C5)CC4)cc3)C2(C)C)ccc1C#N (mixture of isomers) [compound 149, rac-N-((1r,3r)-3-(4-cyano-3-(methoxy-d3)phenoxy)-2,2,4,4-tetramethylcyclobutyl)-4-(4-((((1r,3r)-3-((2-(2,6-dioxopiperidin-3-yl)-7-(methoxy-d3)-1,3-dioxoisoindolin-5-yl)oxy)cyclobutyl) (isopropyl)amino)methyl)piperidin-1-yl)benzamide]
11 | < 1 | COc1cc(O[C@H]2C[C@H](N(CCN3CCOCC3)CC3CCN(c4ccc(C(=O)N[C@H]5C(C)(C)[C@H](Oc6cc(C)c(C#N)c(C)c6)C5(C)C)cc4)CC3)C2)cc2c1C(=O)N(C1CCC(=O)NC1=O)C2=O (some centres unmarked) [compound 180, N-((1r,3r)-3-(4-cyano-3,5-dimethylphenoxy)-2,2,4,4-tetramethylcyclobutyl)-4-(4-((((1r,3r)-3-((2-(2,6-dioxopiperidin-3-yl)-7-methoxy-1,3-dioxoisoindolin-5-yl)oxy)cyclobutyl)(2-morpholinoethyl)amino)methyl)piperidin-1-yl)benzamide]
12 | < 1 | COc1cc(O[C@H]2C[C@H](N(CC3CCN(c4ncc(C(=O)N[C@H]5C(C)(C)[C@H](Oc6cc(C)c(C#N)c(C)c6)C5(C)C)cn4)CC3)C(C)=O)C2)cc2c1C(=O)N(C1CCC(=O)NC1=O)C2=O (some centres unmarked) [compound 81, N-((1r,3r)-3-(4-cyano-3,5-dimethylphenoxy)-2,2,4,4-tetramethylcyclobutyl)-2-(4-((N-((1r,3r)-3-((2-(2,6-dioxopiperidin-3-yl)-7-methoxy-1,3-dioxoisoindolin-5-yl)oxy)cyclobutyl)acetamido)methyl)piperidin-1-yl)pyrimidine-5-carboxamide]
13 | > 100 | CC1(C)[C@H](NC(=O)c2ccc(N3CCC(CN4CCN(c5ccc6c(c5)C5(CC5)N(C5CCC(=O)NC5=O)C6=O)CC4)CC3)cc2)C(C)(C)[C@H]1Oc1ccc(C#N)c(Cl)c1 (some centres unmarked) [compound 139, N-((1r,3r)-3-(3-chloro-4-cyanophenoxy)-2,2,4,4-tetramethylcyclobutyl)-4-(4-((4-(2′-(2,6-dioxopiperidin-3-yl)-3′-oxospiro[cyclopropane-1,1′-isoindolin]-6′-yl)piperazin-1-yl)methyl)piperidin-1-yl)benzamide]
14 | < 1 | COCCN(CC1CCN(c2ccc(C(=O)N[C@H]3C(C)(C)[C@H](Oc4cc(C)c(C#N)c(C)c4)C3(C)C)nn2)CC1)[C@H]1C[C@H](Oc2ccc3c(c2)C(=O)N(C2CCC(=O)NC2=O)C3=O)C1 (some centres unmarked) [compound 121, N-((1r,3r)-3-(4-cyano-3,5-dimethylphenoxy)-2,2,4,4-tetramethylcyclobutyl)-6-(4-((((1r,3r)-3-((2-(2,6-dioxopiperidin-3-yl)-1,3-dioxoisoindolin-5-yl)oxy)cyclobutyl)(2-methoxyethyl)amino)methyl)piperidin-1-yl)pyridazine-3-carboxamide]
15 | < 1 | Cc1cc(O[C@H]2C(C)(C)[C@H](NC(=O)c3cnc(N4CCC(CN(C)[C@H]5C[C@H](Oc6ccc7c(c6)C(=O)N(C6CCC(=O)NC6=O)C7=O)C5)CC4)cn3)C2(C)C)cc(C)c1C#N (mixture of isomers) [compound 224, rac-N-((1r,3r)-3-(4-cyano-3,5-dimethylphenoxy)-2,2,4,4-tetramethylcyclobutyl)-5-(4-((((1r,3r)-3-((2-(2,6-dioxopiperidin-3-yl)-1,3-dioxoisoindolin-5-yl)oxy)cyclobutyl) (methyl)amino)methyl)piperidin-1-yl)pyrazine-2-carboxamide]
16 | < 1 | [2H]C([2H])([2H])Oc1cc(O[C@H]2C[C@H](N(CC3CCN(c4ccc(C(=O)N[C@H]5C(C)(C)[C@H](Oc6cc(C)c(C#N)c(C)c6)C5(C)C)cc4)CC3)C(C)C)C2)cc2c1C(=O)N(C1CCC(=O)NC1=O)C2=O (mixture of isomers) [compound 153, rac-N-((1r,3r)-3-(4-cyano-3,5-dimethylphenoxy)-2,2,4,4-tetramethylcyclobutyl)-4-(4-((((1r,3r)-3-((2-(2,6-dioxopiperidin-3-yl)-7-(methoxy-d3)-1,3-dioxoisoindolin-5-yl)oxy)cyclobutyl) (isopropyl)amino)methyl)piperidin-1-yl)benzamide]
17 | < 1 | CC1(C)[C@H](NC(=O)c2ccc(N3CCC(CN(CCN4CCOCC4)[C@H]4C[C@H](Oc5ccc6c(c5)C(=O)N(C5CCC(=O)NC5=O)C6=O)C4)CC3)cc2)C(C)(C)[C@H]1Oc1ccc(C#N)c(Cl)c1 (some centres unmarked) [compound 219, N-((1r,3r)-3-(3-chloro-4-cyanophenoxy)-2,2,4,4-tetramethylcyclobutyl)-4-(4-((((1r,3r)-3-((2-(2,6-dioxopiperidin-3-yl)-1,3-dioxoisoindolin-5-yl)oxy)cyclobutyl)(2-morpholinoethyl)amino)methyl)piperidin-1-yl)benzamide]
